Holding throughout (type): in vivo
Experiment [1] has as its system Housefly [Musca domestica]. Put plainly: Housefly insecticidal test (HF). To be noted: per 25 female houseflies; mortality at 48 hours. Here is the method: (§1) The compounds in Table 1 above were tested for insecticidal activity using the following testing procedures. LC50 values, based on the results of these tests and calculated according to dosage-mortality curves, are expressed in Table 2.
Housefly [Musca domestica]
The test compound was diluted in acetone and aliquots pipetted onto the bottom of aluminum dishes. To ensure even spreading of the chemical on the bottom of the dishes, 1 ml of acetone containing 0.01% peanut oil was also added to each dish. After all solvents had evaporated, the dishes were placed in circular cardboard cages containing 25 female houseflies, 1-2 days old. The cages were covered on the bottom with cellophane and on the top with tulle netting, and each contained a sugar-water saturated cotton plug for maintenance of the flies. Mortality was recorded after 48 hours. Test levels ranged from 100 μg/25 female houseflies downward. The LC-50 value is expressed below in Table 2 under the heading "HF", in terms of μg of the test compound per 25 female flies.

For experiment [2], the system named is two-spotted mite [Tetranychus urticae (Koch)], adults. As to the kind of experiment: Two-spotted mite acaricidal test, adults (2SM-A). To be noted: percent of test compound in solution, 5-7 days. Here is the method:
as §1
(§2) Acaricidal Evaluation Test
(§3) The two-spotted mite (2SM) [Tetranychus urticae (Koch)]was employed in tests for miticides. The test procedure was as follows:
(§4) Pinto bean plants (Phaseolus sp.), approximately 10 cm tall, were transplanted into sandy loam soil in small cups and thoroughly infested with two-spotted mites of mixed ages and sexes. Twenty-four hours later the infested plants were inverted and dipped for 2-3 seconds in 50--50 acetone-water solutions of the test compound. Treated plants were held in the greenhouse, and 5-7 days later mortality was determined for both adult mites and the nymphs hatching from eggs which were on the plants at the time of treatment. Test concentrations ranged from 0.05% downward. The LC-50 value is expressed below in Table 2 under the headings "2SM-A" (i.e., adults) and "2SM-E" (i.e. eggs) in terms of percent concentration of the test compound in the solution.

Experiment [3] deals with two-spotted mite [Tetranychus urticae (Koch)], eggs. Put plainly: Two-spotted mite acaricidal test, eggs (2SM-E). Conditions: percent of test compound in solution; nymphs hatching from eggs; 5-7 days. As for the experimental part:
as §1, §2, §3, §4

Experiment [4] relates to Tobacco Budworm [Heliothis virescens (Fabricius)], eggs. As to the kind of experiment: Tobacco budworm egg test (TBW-E). To be noted: percent of test compound in solution; 2-day old eggs. As for the experimental part:
(§5) The compounds in Table 1 above were tested for insecticidal activity using the following testing procedures.
Tobacco Budworm [Heliothis virescens (Fabricius)]
(b). Eggs: Paper towel patches of 2-day old eggs of the tobacco budworm were dipped in acetone solutions of the test compound and placed in petri dishes containing a portion of larval rearing medium. […] Test concentrations ranged from 0.1% downward. The LC-50 value is expressed below in Table 2 under the heading "TBW-E" in terms of percent of the test compound in the solution.

In experiment [5] the test system is Cabbage Looper [Trichoplusia ni (Hubner)]. As to the kind of experiment: Cabbage looper test (CL). To be noted: percent of test compound in solution; second-instar larvae; 3-5 days. Here is the method:
as §5
Cabbage Looper [Trichoplusia ni (Hubner)]
The test compound was diluted in a 50--50 acetone-water solution. Cotyledons of hyzini squash (Calabacita abobrinha), approximately 1×1.5 inches, were immersed in the test solutions for 2-3 seconds and placed on a wire screen to dry. The dried leaves were placed in petri dished containing a moistened piece of filter paper and infested with 5 secondinstar cabbage looper larvae. The dished were placed in a high humidity chamber. Mortality of the larvae was recorded 3-5 days later. Test concentrations ranged from 0.1% downward. The LC-50 value is expressed below in Table 2 under the heading "CL" in terms of percent of the test compound in solution.

The test system of experiment [6] is Western Spotted Cucumber Beetle Larvae [Diabrotica undecimpunctata undecimpunctata (Mannherheim)]. Put plainly: Western spotted cucumber beetle larvae soil test (Diabrotica). Conditions: ppm of test compound in the soil. As for the experimental part:
as §1
Western Spotted Cucumber Beetle Larvae[Diabrotica undecimpunctata undecimpunctata (Mannherheim)]
Ten grams of moist potting soil was placed in a plastic cup. The test compound was dissolved in acetone. A 0.05 ml aliquot of the test sample, diluted to the desired concentration, was added to the soil. The cup was capped and the soil was mixed on a vortex mixer for approximately 15 seconds. An indentation was made on the surface of the soil and approximately 50 Diabrotica eggs were added. The eggs were covered with soil and maintained at room temperature (approximately 70° F. or 21° C.). Four days later a section of Romaine lettuce (Latuca sativa) leaf was placed in the treated cups. One week later the cups were examined for live larvae. TEst concentrations ranged from 25 ppm downward. The LC-50 value is expressed below in Table 2 under the heading "Diabrotica" in terms of ppm of the test compound in the soil.

Experiment [7] relates to Aster Leafhopper [Macrosteles fascifrens (Stal)]. Put plainly: Contact residue assay on the aster leafhopper (LH). Conditions: percent of test compound in solution; adults/nymphs; 48 hours. As for the experimental part:
as §1
Contact Residue Assay on the Aster Leafhopper [Macrosteles fascifrens (Stal)]
Oat seedlings (Avena sp) were grown in a commercial potting soil in cups. When the plants were approximately 10 cm tall they were thinned to three plants per cup and dipped for 2-3 seconds in 50--50 acetone-water solutions of the test compounds. When the plants had dried, a clear plastic tube was placed over them and the bottom end pressed into the cup. Ten aster leafhopper adults/nymphs were then placed in each tube and the tops of the tubes covered with white organdy cloth. Mortality counts were made after 48 hours. Test concentrations ranged from 0.05% down to that at which 50% mortality occurred. The LC50 values are expressed below in Table 2 under the heading "LH" in terms of the percent of the test compound in the solution.

Where only a bound is given, the exact number is not on record here.

Regarding `CC(C)(C)c1ccc(N=C(OCc2cccc(Oc3ccc(F)cc3)c2)C2CC2)cc1` [Compound 14], the “LC50 HF” value in experiment [1] is greater than 100 µg. Besides, the “LC50 2-SM A (adults)” value in experiment [2] is 0.02%. Besides, the “LC50 2-SM E (eggs)” value in experiment [3] was found to be 0.02%. Further, in experiment [4], the “LC50 TBW E (eggs)” value is recorded as greater than 0.1%. Besides, the “LC50 CL” value in experiment [5] was 0.017%. Further, the “LC50 Diabrotica” value in experiment [6] is on record as > 25 ppm (soil). For the same molecule, the “LC50 LH” value in experiment [7] was greater than 0.05%.

The values above are taken from patent US4994488A, “Novel imidate insecticides” (ICI Americas Inc., priority 1989, dated 1991).
